Assay [1] deals with subjects with type 2 diabetes. Conditions: 14-day multiple ascending dose, compared to placebo, FIG. 2.
From the text: Results from the 24-hour glucose excretion are shown in FIG. 2 for all subjects in the MB-102003 study. The mean urine glucose is in the darker lines.
The subject of another assay is healthy subjects. The conditions noted are these: healthy subjects taking 5, 20, 50 or 100 mg; versus known SGLT2 inhibitor GSK 869,682 (50, 100, 200 or 500 mg); FIG. 1.

Method for healthy subjects: The panel at the top of FIG. 1 is from a presentation by GSK in an analyst meeting, showing the amount of glucose excretion/day in healthy subjects taking 50, 100, 200 or 500 mg of GSK 869,682. The panel at the bottom is from study MB-102001, showing the amount of glucose excretion/day in healthy subjects taking 5, 20, 50 or 100 mg of compound Ia.

As to `CCOc1ccc(Cc2cc([C@@H]3O[C@H](CO)[C@@H](O)[C@H](O)[C@H]3O)ccc2Cl)cc1` [compound Ia], the “24-hour urine glucose excretion” value in assay [1] is listed as “higher urine glucose excretion”. Also, in the assay on healthy subjects, the “glucosuric effect: loss of calories in the urine (glucose excretion/day)” value was “significant loss of calories in the urine”.

These data come from patent US8450286B2, “Method for treating cancers having high glucose requirements employing an SGLT2 inhibitor and compositions thereof” (Bristol-Myers Squibb Company, priority 2008, dated 2013).
